Reference: ChEMBL document CHEMBL5226384, “Total Syntheses, Absolute Configurations, and Cytotoxicity Evaluation of Ugonstilbenes A, B, and C from the Rhizomes of Helminthostachys zeylanica” (J Nat Prod, 2023)

Key:
[1] = Cytotoxicity against fibroblast (unknown origin) cells assessed as reduction in cell viability incubated for 6 hrs by SRB assay; format: toxicity, cell-based
NCI-H460 = test: Cytotoxicity against human NCI-H460 cells assessed as reduction in cell viability incubated for 6 hrs by SRB assay; format: functional, cell-based; conditions: NCI-H460, 6 h
CCRF-CEM = test: Cytotoxicity against human CCRF-CEM cells assessed as reduction in cell viability incubated for 6 hrs by SRB assay; format: functional, cell-based
MCF7 = test: Cytotoxicity against human MCF7 cells assessed as reduction in cell viability incubated for 6 hrs by SRB assay; format: functional, cell-based; conditions: MCF7, 6 h
HT-29 = test: Cytotoxicity against human HT-29 cells assessed as reduction in cell viability incubated for 6 hrs by SRB assay; format: functional, cell-based; conditions: HT-29, 6 h

Row | SMILES | IC50 at 6 h [1] [nM] | IC50 (NCI-H460) [nM] | IC50 (CCRF-CEM) [nM] | IC50 (MCF7) [nM] | IC50 (HT-29) [nM]
1 | CC1=CCCC(C)(C)[C@@H]1Cc1c(O)cc(/C=C/c2ccc(O)cc2)cc1O | 6600 | 1700 | 270 | 8000 | 4400
2 | CC1=CCCC(C)(C)[C@H]1Cc1cc(/C=C/c2cc(O)cc(O)c2)ccc1O | 7400 | 6000 | 2800 | 4400 | 5000
3 | CC1(C)CCC[C@]2(C)Oc3ccc(/C=C/c4cc(O)cc(O)c4)cc3C[C@H]12 | 8000 | 2200 | 1400 | 1700 | 3300
4 | CC1(C)CCC[C@@]2(C)Oc3cc(/C=C/c4ccc(O)cc4)cc(O)c3C[C@@H]12 | 7100 | 1700 | 1100 | 1400 | 2200
5 | CC1(C)CCC[C@]2(C)Oc3cc(/C=C/c4ccc(O)cc4)cc(O)c3C[C@H]12 | 6600 | 1400 | 1700 | 1900 | 3600
6 | Oc1ccc(/C=C/c2cc(O)cc(O)c2)cc1 [RESVERATROL] | 218000 | 58000 | 900 | 135000 | 120000
7 | CC1=CCCC(C)(C)[C@H]1Cc1c(O)cc(/C=C/c2ccc(O)cc2)cc1O | 6600 | 1700 | 820 | 1700 | 2500
8 | COc1cccc2c1C(=O)c1c(O)c3c(c(O)c1C2=O)C[C@@](O)(C(=O)CO)C[C@@H]3O[C@H]1C[C@H](N)[C@H](O)[C@H](C)O1 [DOXORUBICIN] | 67000 | 10 | 90 | 270 | 120
9 | CC1=CCCC(C)(C)[C@@H]1Cc1cc(/C=C/c2cc(O)cc(O)c2)ccc1O | 7100 | 5500 | 3000 | 4100 | 5200
10 | CC1(C)CCC[C@@]2(C)Oc3ccc(/C=C/c4cc(O)cc(O)c4)cc3C[C@@H]12 | 6900 | 2500 | 1400 | 2800 | 2800
